According to patent US20160075653A1, “NEMATICIDAL N-(PHENYLCYCLOALKYL)CARBOXAMIDES AND N-(PHENYLCYCLOALKYL)THIOCARBOXAMIDES” (BAYER CROPSCIENCE AKTIENGESELLSCHAFT, priority 2013, published 2016):

What was measured:
Meloidogyne incognita = Meloidogyne incognita test (MELGIN), gall formation on salad seedlings; type: in vivo; conditions: application rate 20 ppm, after 14 days
Summary of the method: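 Sand vessels treated with acetone-formulated compound diluted in water, then inoculated with M. incognita eggs and larvae and sown with salad seeds. Root galling assessed after 14 days: 100% = no galls, 0% = galling equal to untreated plants.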

[1] = Measurement of log P values by HPLC on reversed phase columns (methods [a] pH 2.3, [b] pH 2.7, [c] pH 7.8); type: physicochemical
Summary of the method: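 Determined per EEC Directive 79/831 Annex V.A8 by reversed-phase HPLC, 10-95% acetonitrile gradient: [a] pH 2.3, 0.1% phosphoric acid; [b] LC-MS, pH 2.7, 0.1% formic acid; [c] LC-MS, pH 7.8, 0.001 molar ammonium hydrogen carbonate. Calibrated with C3-C16 alkan-2-ones by retention-time interpolation.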

[2] = HPLC reversed phase, method [b] (pH 2.7)
[3] = method [b], HPLC reversed phase, pH 2.7
[4] = method [c], HPLC reversed phase, pH 7.8
[5] = HPLC on reversed phase column, method [b], pH 2.7
[6] = HPLC on reversed phase column, method [c], pH 7.8

O=C(N[C@@H]1CC[C@@H]1c1cc(F)ccc1C(F)(F)F)c1ccccc1[N+](=O)[O-] (relative stereo) [Compound 540]
nematicidal activity (percentage of gall formation; 100% = no galls) (Meloidogyne incognita): 100%
logP [1, 2]: 3.07^[b]

O=C(N[C@@H]1CC[C@@H]1c1c(F)cccc1C(F)(F)F)c1ncc(C(F)(F)F)cc1Cl (relative stereo) [Compound 543]
nematicidal activity (percentage of gall formation; 100% = no galls) (Meloidogyne incognita): 90%
logP [1, 2]: 4.13^[b]

O=C(NC1CCCC1c1ccccc1Cl)c1cccnc1C(F)(F)F (centres unmarked) [Compound 297]
nematicidal activity (percentage of gall formation; 100% = no galls) (Meloidogyne incognita): 100%
logP [1, 2]: 3.05^[b]

O=C(NC1CCC1c1cc(F)ccc1C(F)(F)F)c1ncccc1Cl (centres unmarked) [Compound 518]
nematicidal activity (percentage of gall formation; 100% = no galls) (Meloidogyne incognita): 100%
logP [1, 2]: 3.08^[b]

O=C(N[C@@H]1CC[C@@H]1c1ccc(Cl)cc1Cl)c1ncccc1Cl (relative stereo) [Compound 260]
nematicidal activity (percentage of gall formation; 100% = no galls) (Meloidogyne incognita): 100%
logP [1, 2]: 3.28^[b]

O=C(N[C@@H]1CC[C@@H]1c1ccccc1Cl)c1ccccc1C(F)(F)F (relative stereo) [Compound 251]
nematicidal activity (percentage of gall formation; 100% = no galls) (Meloidogyne incognita): 100%
logP [1, 2]: 3.23^[b]

O=C(N[C@@H]1CC[C@H]1c1ccc(Cl)cc1Cl)c1ccccc1Cl (relative stereo) [Compound 256]
nematicidal activity (percentage of gall formation; 100% = no galls) (Meloidogyne incognita): 90%
logP [1, 2]: 3.90^[b]

O=C(N[C@@H]1CC[C@@H]1c1ccc(F)cc1C(F)(F)F)c1ccccc1[N+](=O)[O-] (relative stereo) [Compound 522]
nematicidal activity (percentage of gall formation; 100% = no galls) (Meloidogyne incognita): 90%
logP [1, 2]: 3.04^[b]

O=C(N[C@@H]1CC[C@@H]1c1ccc(F)cc1C(F)(F)F)c1ccccc1 (relative stereo) [Compound 505]
nematicidal activity (percentage of gall formation; 100% = no galls) (Meloidogyne incognita): 90%
logP [1, 2]: 2.97^[b]

O=C(N[C@@H]1CC[C@@H]1c1ccc(F)cc1C(F)(F)F)c1ccccc1Cl (relative stereo) [Compound 509]
nematicidal activity (percentage of gall formation; 100% = no galls) (Meloidogyne incognita): 100%
logP [1, 2]: 3.34^[b]

O=C(N[C@@H]1CC[C@@H]1c1ccc(F)cc1C(F)(F)F)c1ccccc1Br (relative stereo) [Compound 491]
nematicidal activity (percentage of gall formation; 100% = no galls) (Meloidogyne incognita): 100%
logP [1, 2]: 3.39^[b]

O=C(NC1CC1c1ccc(Cl)cc1Cl)c1sccc1Cl (centres unmarked) [Compound 213]
nematicidal activity (percentage of gall formation; 100% = no galls) (Meloidogyne incognita): 100%
logP [1, 3]: 4.08^[b]
logP [1, 4]: 4.02^[c];

O=C(NC1CCCC1c1ccccc1Cl)c1ccccc1C(F)(F)F (centres unmarked) [Compound 296]
nematicidal activity (percentage of gall formation; 100% = no galls) (Meloidogyne incognita): 90%
logP [1, 2]: 3.55^[b]

O=C(N[C@@H]1CC[C@@H]1c1c(F)cccc1C(F)(F)F)c1nccnc1Cl (relative stereo) [Compound 576]
nematicidal activity (percentage of gall formation; 100% = no galls) (Meloidogyne incognita): 100%
logP [1, 2]: 3.02^[b]

O=C(N[C@@H]1CC[C@@H]1c1cc(F)ccc1C(F)(F)F)c1ccccc1 (relative stereo) [Compound 550]
nematicidal activity (percentage of gall formation; 100% = no galls) (Meloidogyne incognita): 100%
logP [1, 2]: 3.15^[b]

O=C(N[C@@H]1CC[C@@H]1c1ccc(F)cc1C(F)(F)F)c1cccnc1C(F)(F)F (relative stereo) [Compound 489]
nematicidal activity (percentage of gall formation; 100% = no galls) (Meloidogyne incognita): 100%
logP [1, 2]: 3.02^[b]

O=C(NC1CCC1c1ccc(Cl)cc1Cl)c1c(F)cccc1F (centres unmarked) [Compound 482]
nematicidal activity (percentage of gall formation; 100% = no galls) (Meloidogyne incognita): 90%
logP [1, 2]: 3.70^[b]

O=C(N[C@@H]1CC[C@@H]1c1cc(F)ccc1C(F)(F)F)c1nccnc1Cl (relative stereo) [Compound 559]
nematicidal activity (percentage of gall formation; 100% = no galls) (Meloidogyne incognita): 100%
logP [1, 2]: 2.88^[b]

O=C(NC1CCC1c1ccccc1C(F)(F)F)c1ccccc1I (centres unmarked) [Compound 427]
nematicidal activity (percentage of gall formation; 100% = no galls) (Meloidogyne incognita): 100%
logP [1, 2]: 3.44^[b]

O=C(N[C@@H]1CC[C@@H]1c1cccc(F)c1C(F)(F)F)c1ccccc1I (relative stereo) [Compound 599]
nematicidal activity (percentage of gall formation; 100% = no galls) (Meloidogyne incognita): 100%
logP [1, 5]: 3.39^[b]

O=C(NC1CCC1c1ccc(Cl)cc1Cl)c1cccnc1C(F)(F)F (centres unmarked) [Compound 481]
nematicidal activity (percentage of gall formation; 100% = no galls) (Meloidogyne incognita): 100%
logP [1, 2]: 3.20^[b]

O=C(N[C@@H]1CC[C@@H]1c1c(F)cccc1C(F)(F)F)c1cccnc1Cl (relative stereo) [Compound 575]
nematicidal activity (percentage of gall formation; 100% = no galls) (Meloidogyne incognita): 100%
logP [1, 2]: 2.83^[b]

O=C(NC1CCCC1c1c(F)cccc1F)c1cccnc1C(F)(F)F (centres unmarked) [Compound 313]
nematicidal activity (percentage of gall formation; 100% = no galls) (Meloidogyne incognita): 100%
logP [1, 2]: 2.87^[b]

O=C(NC1CCC1c1ccccc1C(F)(F)F)c1cccnc1C(F)(F)F (centres unmarked) [Compound 235]
nematicidal activity (percentage of gall formation; 100% = no galls) (Meloidogyne incognita): 100%
logP [1, 3]: 2.94^[b]

Cn1cc(C(=O)NC2CCC2c2ccc(F)cc2C(F)(F)F)c(C(F)F)n1 (centres unmarked) [Compound 485]
nematicidal activity (percentage of gall formation; 100% = no galls) (Meloidogyne incognita): 90%
logP [1, 2]: 2.84^[b]

Cn1cc(C(=O)N[C@@H]2CC[C@@H]2c2c(F)cccc2C(F)(F)F)c(C(F)F)n1 (relative stereo) [Compound 574]
nematicidal activity (percentage of gall formation; 100% = no galls) (Meloidogyne incognita): 100%
logP [1, 2]: 2.91^[b]

O=C(N[C@@H]1CC[C@@H]1c1cccc(F)c1C(F)(F)F)c1cccnc1C(F)(F)F (relative stereo) [Compound 641]
nematicidal activity (percentage of gall formation; 100% = no galls) (Meloidogyne incognita): 100%
logP [1, 5]: 2.97^[b]

O=C(N[C@@H]1CC[C@@H]1c1c(F)cccc1C(F)(F)F)c1ccccc1Br (relative stereo) [Compound 563]
nematicidal activity (percentage of gall formation; 100% = no galls) (Meloidogyne incognita): 100%
logP [1, 2]: 3.46^[b]

O=C(N[C@@H]1CC[C@@H]1c1ccccc1Cl)c1ccccc1Cl (relative stereo) [Compound 248]
nematicidal activity (percentage of gall formation; 100% = no galls) (Meloidogyne incognita): 90%
logP [1, 2]: 3.08^[b]

O=C(NC1CCCCC1c1ccc(Cl)cc1Cl)c1cccnc1C(F)(F)F (centres unmarked) [Compound 414]
nematicidal activity (percentage of gall formation; 100% = no galls) (Meloidogyne incognita): 100%
logP [1, 2]: 4.03^[b]

O=C(NC1CCCC1c1ccccc1Br)c1cccnc1Cl (centres unmarked) [Compound 348]
nematicidal activity (percentage of gall formation; 100% = no galls) (Meloidogyne incognita): 90%
logP [1, 2]: 2.80^[b]

O=C(N[C@@H]1CC[C@@H]1c1c(F)cccc1C(F)(F)F)c1ccccc1I (relative stereo) [Compound 542]
nematicidal activity (percentage of gall formation; 100% = no galls) (Meloidogyne incognita): 100%
logP [1, 2]: 3.96^[b]

O=C(N[C@@H]1CC[C@@H]1c1ccccc1Cl)c1cccnc1 (relative stereo) [Compound 555]
nematicidal activity (percentage of gall formation; 100% = no galls) (Meloidogyne incognita): 90%
logP [1, 2]: 1.18^[b]

O=C(NC1CCC1c1ccccc1C(F)(F)F)c1ncccc1Br (centres unmarked) [Compound 695]
nematicidal activity (percentage of gall formation; 100% = no galls) (Meloidogyne incognita): 100%
logP [1, 5]: 3.17^[b]
logP [1, 6]: 3.10^[c];

O=C(N[C@@H]1CC[C@@H]1c1cc(F)ccc1C(F)(F)F)c1cccnc1Cl (relative stereo) [Compound 571]
nematicidal activity (percentage of gall formation; 100% = no galls) (Meloidogyne incognita): 100%
logP [1, 2]: 2.75^[b]

Cc1nc(C(F)(F)F)c(C(=O)N[C@@H]2CC[C@@H]2c2ccccc2Cl)s1 (relative stereo) [Compound 545]
nematicidal activity (percentage of gall formation; 100% = no galls) (Meloidogyne incognita): 100%
logP [1, 2]: 3.15^[b]

O=C(N[C@@H]1CC[C@@H]1c1cc(F)ccc1C(F)(F)F)c1ccccc1I (relative stereo) [Compound 541]
nematicidal activity (percentage of gall formation; 100% = no galls) (Meloidogyne incognita): 100%
logP [1, 2]: 3.52^[b]

CS(=O)(=O)c1ccccc1C(=O)N[C@@H]1C[C@@H]1c1ccc(Cl)cc1Cl (relative stereo) [Compound 609]
nematicidal activity (percentage of gall formation; 100% = no galls) (Meloidogyne incognita): 100%
logP [1, 5]: 2.62^[b]
logP [1, 6]: 2.61^[c];

O=C(N[C@@H]1CC[C@@H]1c1cccc(F)c1C(F)(F)F)c1ccc(Cl)cc1 (relative stereo) [Compound 595]
nematicidal activity (percentage of gall formation; 100% = no galls) (Meloidogyne incognita): 100%
logP [1, 5]: 3.47^[b]

O=C(NC1CC1c1ccc(Cl)cc1)c1nccnc1Cl (centres unmarked) [Compound 461]
nematicidal activity (percentage of gall formation; 100% = no galls) (Meloidogyne incognita): 100%
logP [1, 2]: 2.29^[b]
logP ([1]; HPLC reversed phase, method [c] pH 7.8): 2.27^[c];

O=C(N[C@@H]1CC[C@H]1c1ccc(F)cc1C(F)(F)F)c1cccnc1C(F)(F)F (relative stereo) [Compound 487]
nematicidal activity (percentage of gall formation; 100% = no galls) (Meloidogyne incognita): 90%
logP [1, 2]: 3.20^[b]

O=C(NC1CCC1c1ccc(Cl)cc1Cl)c1ccccc1Br (centres unmarked) [Compound 472]
nematicidal activity (percentage of gall formation; 100% = no galls) (Meloidogyne incognita): 90%
logP [1, 2]: 3.60^[b]

O=C(NC1CC1c1ccc(Cl)cc1Cl)c1sccc1I (centres unmarked) [Compound 212]
nematicidal activity (percentage of gall formation; 100% = no galls) (Meloidogyne incognita): 100%
logP [1, 3]: 4.10^[b]
logP [1, 4]: 4.04^[c];

O=C(N[C@@H]1CC[C@@H]1c1ccc(F)cc1C(F)(F)F)c1cccnc1 (relative stereo) [Compound 523]
nematicidal activity (percentage of gall formation; 100% = no galls) (Meloidogyne incognita): 90%
logP [1, 2]: 2.18^[b]

O=C(N[C@@H]1CC[C@@H]1c1c(F)cccc1C(F)(F)F)c1sccc1I (relative stereo) [Compound 584]
nematicidal activity (percentage of gall formation; 100% = no galls) (Meloidogyne incognita): 100%
logP [1, 2]: 4.00^[b]

O=C(N[C@@H]1CC[C@@H]1c1ccccc1Cl)c1c(F)cccc1F (relative stereo) [Compound 252]
nematicidal activity (percentage of gall formation; 100% = no galls) (Meloidogyne incognita): 100%
logP [1, 2]: 2.86^[b]

O=C(N[C@@H]1CC[C@@H]1c1cccc(F)c1C(F)(F)F)c1cccnc1 (relative stereo) [Compound 631]
nematicidal activity (percentage of gall formation; 100% = no galls) (Meloidogyne incognita): 90%
logP [1, 5]: 2.12^[b]

O=C(NC1CCCC1c1c(F)cccc1F)c1ccccc1Cl (centres unmarked) [Compound 311]
nematicidal activity (percentage of gall formation; 100% = no galls) (Meloidogyne incognita): 90%
logP [1, 2]: 3.24^[b]
